For one molecule, EC50 results are on record in patent US7687457B2, “Cyclic molecular framework and derivatives thereof” (The University of Queensland, priority 1999, dated 2010).

Where a SMILES comes first, the peptide text is derived from it.

The subject of this assay is erythrocytes. Briefly: haemolytic activity, lysis of erythrocytes. Type of assay: cell-based. To be noted: haemolysis; read-out: concentration causing 50% lysis of erythrocytes.

As for `CC[C@H](C)[C@@H]1NC(=O)CNC(=O)[C@H](CC(N)=O)NC(=O)[C@H](Cc2ccc(O)cc2)NC(=O)[C@@H]2CSSC[C@@H]3NC(=O)[C@@H]4CCCN4C(=O)[C@H]([C@@H](C)CC)NC(=O)[C@H](Cc4ccc(O)cc4)NC(=O)[C@H](C(C)C)NC(=O)[C@@H]4CSSC[C@H](NC(=O)[C@H](CO)NC(=O)[C@H](CSSC[C@H](NC(=O)[C@@H]5CCCN5C1=O)C(=O)N[C@@H](C)C(=O)N[C@@H](CCC(=O)O)C(=O)N[C@@H](CO)C(=O)N4)NC(=O)CNC(=O)[C@H](CC(C)C)NC(=O)[C@H](CC(C)C)NC(=O)[C@H](C)NC(=O)[C@H]([C@@H](C)O)NC(=O)[C@H](C(C)C)NC(=O)[C@H]([C@@H](C)O)NC3=O)C(=O)N[C@@H](CO)C(=O)N[C@@H](CC(N)=O)C(=O)N[C@@H](CCCNC(=N)N)C(=O)N[C@@H](C(C)C)C(=O)N2` [cycloviolacin 01] (HELM PEPTIDE1{A.E.S.C.V.Y.I.P.C.T.V.T.A.L.L.G.C.S.C.S.N.R.V.C.Y.N.G.I.P.C}$PEPTIDE1,PEPTIDE1,4:R3-19:R3|PEPTIDE1,PEPTIDE1,9:R3-24:R3|PEPTIDE1,PEPTIDE1,17:R3-30:R3|PEPTIDE1,PEPTIDE1,1:R1-30:R2$$$V2.0), the EC50 was approximately 20 µM.
